Assay results taken from patent US20260166029A1, “METHODS AND SYSTEMS FOR TREATING DISEASE USING AN ATR/CHK1 SIGNALING PATHWAY INHIBITOR” (Acrivon Therapeutics, Inc., priority 2022, published 2026).
Read-outs that look alike come from different tables or passages of the source.

Key:
[1] = system: head and neck, anal, and ovarian cancer; conditions: cited from earlier work
[2] = system: Ovarian, primary HGS; conditions: trial 2, 46 multi-center, 8-country study; cited from earlier work
[3] = system: A2780; experiment: Cell Titer Glo 2.0 viability, prexasertib alone or with gemcitabine, three days (Example 11); type: cell-based; conditions: Homo sapiens, A2780, 72 h
Protocol: (§1) The present Example provides experimental evidence that treatment with gemcitabine sensitizes human cancer cell lines to treatment with prexasertib. A panel of human cancer cell lines were treated with various concentrations of prexasertib (0.17, 0.51, 1.5, 4.6, 13.7, 31.2, 123.5, 370.4, 1111, 3333, and 10000 nM) alone or in combination with various low dose concentrations of gemcitabine (0.53 and 2.7 nM). The panel of cell lines included ovarian, endometrial, bladder, breast, and prostate cancer cell lines. Two ovarian cancer cell lines (OVCAR3 and OV90) were used to generate acquired prexasertib resistant cells. For both cell lines, the parental cells (OVCAR3-P and OV90-P) and acquired prexasertib resistant cells (OVCAR3-R and OV90-R) were tested. Additionally, the panel included three cell lines that are naïve resistant to prexasertib (SW780, T47D, and PC3). After three days of treatment, cell viability relative to DMSO control was assessed using Cell Titer Glo 2.0 (Promega).
(§2) To determine whether gemcitabine and prexasertib acts synergistically, additively, or potentially antagonistically, the panel of human cancer cell lines were treated with various concentrations of prexasertib (0.17, 0.51, 1.5, 4.6, 13.7, 31.2, 123.5, 370.4, 1111, 3333, and 10000 nM) in combination with various concentrations of gemcitabine (1, 3, 13, 67, 333, 1667, 8333 nM). After three days treatment, cell viability relative to DMSO control was assessed using Cell Titer Glo 2.0 (Promega). Drug combination effect was evaluated using SynergyFinder 2.0, see Ianevski et al., Nucleic Acids Res., gkaa216 (2020), and is presented in Table 15 as a Bliss synergy score for each cell line. Bliss synergy scores greater than 10 are indicative of a synergistic effect between prexasertib and gemcitabine, while scores between 10 and −10 are indicative of an additive effect and scores less than −10 are indicative of an antagonistic effect. […] Taken together, the results of this Example support use of a combination of prexasertib and gemcitabine (e.g., low doses of gemcitabine) for treatment of predicted non-responders to prexasertib treatment.

[4] = system: OV90-P; experiment: as above; type: cell-based; conditions: Homo sapiens, 72 h
Protocol: as §1, §2

[5] = system: T47D; experiment: as above; type: cell-based; conditions: Homo sapiens, 72 h, gemcitabine 0.53 nM, read-out: Prexasertib Relative IC50
Protocol: as §1, §2

[6] = system: AN3CA; experiment: as above; type: cell-based; conditions: Homo sapiens, AN3-CA, 72 h
Protocol: as §1, §2

[7] = system: TCCSUP; experiment: as above; type: cell-based; conditions: Homo sapiens, TCC-SUP, 72 h
Protocol: as §1, §2

[8] = system: KLE; experiment: as above; type: cell-based; conditions: Homo sapiens, 72 h, read-out: Prexasertib Relative IC50
Protocol: as §1, §2

[9] = system: SW780; experiment: as above; type: cell-based; conditions: Homo sapiens, 72 h, gemcitabine 0.53 nM
Protocol: as §1, §2

[10] = system: PC3; experiment: as above; type: cell-based; conditions: Homo sapiens, PC-3, 72 h, gemcitabine 0.53 nM, read-out: Prexasertib Relative IC50
Protocol: as §1, §2

[11] = system: OV90-R; experiment: as above; type: cell-based; conditions: Homo sapiens, 72 h, gemcitabine 0.53 nM, read-out: Prexasertib Relative IC50
Protocol: as §1, §2

[12] = system: OVCAR3-R; experiment: as above; type: cell-based; conditions: Homo sapiens, 72 h
Protocol: as §1, §2

[13] = system: OVCAR3-P; experiment: as above; type: cell-based; conditions: Homo sapiens, 72 h
Protocol: as §1, §2

[14] = system: BxPC3; experiment: Cell Titer Glo 2.0 relative cell viability, 72 h (Example 10); type: cell-based; conditions: Homo sapiens, BXPC-3, BxPC3 cell line, read-out: Abs IC50
Protocol: (§3) The present Example provides experimental evidence that cell lines predicted to be sensitive to a Chk1 inhibitor (e.g., prexasertib, are also sensitive to Wee1 inhibitors (e.g., adavosertib (AZD1775, MK1775) and azenosertib (Zn-C3)). Cell lines were treated with increasing doses of either prexasertib, adavosertib, or azenosertib, and relative cell viability against a DMSO control was assessed 72 h after drug treatment using Cell Titer Glo 2.0 (Promega) and a SpectraMax microplate reader. The results are shown in FIGS. 19A-19C. Error bars represent standard deviations from quadruplicate samples.

[15] = system: T47D; experiment: as above; type: cell-based; conditions: Homo sapiens, T47D cell line, read-out: Abs IC50
Protocol: as §3

[16] = system: PC3; experiment: as above; type: cell-based; conditions: Homo sapiens, PC-3, PC3 cell line, read-out: Abs IC50
Protocol: as §3

[17] = system: OVCAR3; experiment: as above; type: cell-based; conditions: Homo sapiens, OVCAR-3, OVCAR3 cell line, read-out: Abs IC50
Protocol: as §3

[18] = system: BT549; experiment: Cell viability, sensitivity to prexasertib (Example 1); type: cell-based, human; conditions: BT549 cell line
Protocol: Predicted response to prexasertib was compared to experimentally measured sensitivity to prexasertib. […] EC50 values of less than or equal to 1 μM were considered to be actual responders, while values of greater than 1 μM were considered to be actual non-responders.

[19] = gemcitabine 0 nM, read-out: Prexasertib Relative IC50
[20] = gemcitabine 0.53 nM, read-out: Prexasertib Absolute IC50
[21] = gemcitabine 0.53 nM, read-out: Prexasertib Relative IC50
[22] = gemcitabine 0 nM, read-out: Prexasertib Absolute IC50
[23] = gemcitabine 2.7 nM, read-out: Prexasertib Absolute IC50
[24] = gemcitabine 2.7 nM, read-out: Prexasertib Relative IC50

## COc1cccc(OCCCN)c1-c1cc(Nc2cnc(C#N)cn2)n[nH]1 [prexasertib, 5-(5-(2-(3-aminopropoxy)-6-methoxyphenyl)-1H-pyrazol-3-ylamino)pyrazine-2-carbonitrile]
[1]; across cancers, including head and neck, anal, and ovarian cancer, single agent
  Response rates in clinical trials: 5-20%
[1]; patients, reversible, common, hematological, mechanism-based myelosuppression
  Side effects: neutropenia, thrombocytopenia, and anemia
[2]
  ORR in trials: 19% (trial 2^)
[3]; [19]
  IC50: 8.5 nM
[3]; [20]
  IC50: 0.5 nM
[3]; [21]
  IC50: 0.3 nM
[4]; [22]
  IC50: 49 nM
[4]; [19]
  IC50: 0.5 nM
[4]; [20]
  IC50: 0.93 nM
[4]; [21]
  IC50: 0.14 nM
[5]
  IC50: 0.22 nM
[6]; [22]
  IC50: 2.2 nM
[6]; [19]
  IC50: 1.5 nM
[6]; [20]
  IC50: 0.3 nM
[6]; [21]
  IC50: 0.2 nM
[7]; [22]
  IC50: 2.8 nM
[7]; [19]
  IC50: 1.4 nM
[7]; [20]
  IC50: 0.08 nM
[7]; [21]
  IC50: 0.04 nM
[8]; gemcitabine 0 nM
  IC50: 0.36 nM
[8]; gemcitabine 0.53 nM
  IC50: 0.02 nM
[9]; read-out: Prexasertib Absolute IC50
  IC50: 0.3 nM
[9]; read-out: Prexasertib Relative IC50
  IC50: 0.06 nM
[10]
  IC50: 0.15 nM
[11]
  IC50: 0.03 nM
[12]; [20]
  IC50: 106 nM
[12]; [21]
  IC50: 30 nM
[12]; [23]
  IC50: 6.2 nM
[12]; [24]
  IC50: 4 nM
[13]; [22]
  IC50: 16 nM
[13]; [19]
  IC50: 8 nM
[13]; [20]
  IC50: 3 nM
[13]; [21]
  IC50: 1.4 nM
[13]; [23]
  IC50: 0.2 nM
[13]; [24]
  IC50: 0.1 nM
[14]
  IC50: 1.4 nM
[15]
  IC50: > 10000 nM
[16]
  IC50: > 10000 nM
[17]
  IC50: 0.9 nM
[18]; based on measured sensitivity (EC50)
  Actual response status: R (EC50 values of less than or equal to 1 μM were considered to be actual responders)
[18]; Homo sapiens, BT-549, reduction in cell viability by 50%
  EC50: 21 nM
